From paper PMC9005681, “Use of AD Informer Set compounds to explore validity of novel targets in Alzheimer's disease pathology” (Alzheimer's & Dementia : Translational Research & Clinical …, 2022)
Where “and” joins values, the source holds several entries; their conditions need not be identical. Equal values may be shown once.

Key:
Assay in all cases: PDSP GPCR panel primary binding assays at 10 μM
[1] = biological target: T1, cloned human or rodent CNS receptors, channels, and transporters (PDSP panel) (Homo sapiens, UniProt P35462); conditions: D3, primary assay; for Mean %: mean inhibition; for Inhibition 1: replicate 1; for Inhibition 2: replicate 2; for Inhibition 3: replicate 3; for Inhibition 4: replicate 4
T1 construct: expressed in transfected cells
Procedure, shortened: (§1)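 Each compound is first screened once at 10 μM, in quadruplicate, for radioligand displacement. Where mean displacement passes 50%, an 11-point dose-response in triplicate follows at that target, except at H3, PBR and GABAA.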

[2] = biological target: T2, cloned human or rodent CNS receptors, channels, and transporters (PDSP panel) (Homo sapiens, UniProt Q01959); conditions: DAT, primary assay; for Mean %: mean inhibition; for Inhibition 1: replicate 1; for Inhibition 2: replicate 2; for Inhibition 3: replicate 3; for Inhibition 4: replicate 4
T2 construct: expressed in transfected cells
Procedure, shortened: as §1

[3] = biological target: T3, cloned human or rodent CNS receptors, channels, and transporters (PDSP panel) (Homo sapiens, UniProt P18089); conditions: Alpha2B, primary assay; for Mean %: mean inhibition; for Inhibition 1: replicate 1; for Inhibition 2: replicate 2; for Inhibition 3: replicate 3; for Inhibition 4: replicate 4
T3 construct: expressed in transfected cells
T3 sequence (P18089 1-450): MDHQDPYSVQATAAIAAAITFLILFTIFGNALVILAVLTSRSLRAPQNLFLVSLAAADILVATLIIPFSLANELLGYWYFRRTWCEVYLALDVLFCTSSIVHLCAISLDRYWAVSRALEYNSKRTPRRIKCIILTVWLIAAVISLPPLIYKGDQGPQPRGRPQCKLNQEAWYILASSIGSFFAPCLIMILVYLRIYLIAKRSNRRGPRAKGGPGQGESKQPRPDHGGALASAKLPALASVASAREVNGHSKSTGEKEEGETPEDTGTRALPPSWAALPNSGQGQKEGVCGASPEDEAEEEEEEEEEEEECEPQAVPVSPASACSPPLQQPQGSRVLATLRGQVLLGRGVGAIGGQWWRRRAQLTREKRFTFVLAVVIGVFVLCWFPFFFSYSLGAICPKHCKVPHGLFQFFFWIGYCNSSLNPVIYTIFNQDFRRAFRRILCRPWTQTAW
Procedure, shortened: as §1

[4] = biological target: T4, cloned human or rodent CNS receptors, channels, and transporters (PDSP panel) (Homo sapiens, UniProt P31645); conditions: SERT, primary assay; for Mean %: mean inhibition; for Inhibition 1: replicate 1; for Inhibition 2: replicate 2; for Inhibition 3: replicate 3; for Inhibition 4: replicate 4
T4 construct: expressed in transfected cells
Procedure, shortened: as §1

[5] = biological target: T5, cloned human or rodent CNS receptors, channels, and transporters (PDSP panel) (Rattus norvegicus, UniProt P16257); conditions: PBR, primary assay; for Inhibition 1: replicate 1; for Inhibition 2: replicate 2; for Inhibition 3: replicate 3; for Inhibition 4: replicate 4
T5 construct: expressed in transfected cells
Procedure, shortened: as §1

[6] = biological target: T6, cloned human or rodent CNS receptors, channels, and transporters (PDSP panel) (Homo sapiens, UniProt P28221); conditions: 5-HT1D, primary assay; for Mean %: mean inhibition; for Inhibition 1: replicate 1; for Inhibition 2: replicate 2; for Inhibition 3: replicate 3; for Inhibition 4: replicate 4
T6 construct: expressed in transfected cells
Procedure, shortened: as §1

[7] = biological target: T7, cloned human or rodent CNS receptors, channels, and transporters (PDSP panel) (Homo sapiens, UniProt P28222); conditions: 5-HT1B, primary assay; for Mean %: mean inhibition; for Inhibition 1: replicate 1; for Inhibition 2: replicate 2; for Inhibition 3: replicate 3; for Inhibition 4: replicate 4
T7 construct: expressed in transfected cells
Procedure, shortened: as §1

[8] = biological target: T8, cloned human or rodent CNS receptors, channels, and transporters (PDSP panel) (Homo sapiens, UniProt P28566); conditions: 5-HT1E, primary assay; for Mean %: mean inhibition; for Inhibition 1: replicate 1; for Inhibition 2: replicate 2; for Inhibition 3: replicate 3; for Inhibition 4: replicate 4
T8 construct: expressed in transfected cells
Procedure, shortened: as §1

[9] = biological target: T9, cloned human or rodent CNS receptors, channels, and transporters (PDSP panel) (Homo sapiens, UniProt P34969); conditions: 5-HT7A, primary assay; for Mean %: mean inhibition; for Inhibition 1: replicate 1; for Inhibition 2: replicate 2; for Inhibition 3: replicate 3; for Inhibition 4: replicate 4
T9 construct: expressed in transfected cells
Procedure, shortened: as §1

[10] = biological target: T10, cloned human or rodent CNS receptors, channels, and transporters (PDSP panel) (Homo sapiens, UniProt P14416); conditions: D2, primary assay; for Mean %: mean inhibition; for Inhibition 1: replicate 1; for Inhibition 2: replicate 2; for Inhibition 3: replicate 3; for Inhibition 4: replicate 4
T10 construct: expressed in transfected cells
Procedure, shortened: as §1

[11] = biological target: T11, cloned human or rodent CNS receptors, channels, and transporters (PDSP panel) (Homo sapiens, UniProt P28335); conditions: 5-HT2C, primary assay; for Mean %: mean inhibition; for Inhibition 1: replicate 1; for Inhibition 2: replicate 2; for Inhibition 3: replicate 3; for Inhibition 4: replicate 4
T11 construct: expressed in transfected cells
T11 sequence (P28335 33-458): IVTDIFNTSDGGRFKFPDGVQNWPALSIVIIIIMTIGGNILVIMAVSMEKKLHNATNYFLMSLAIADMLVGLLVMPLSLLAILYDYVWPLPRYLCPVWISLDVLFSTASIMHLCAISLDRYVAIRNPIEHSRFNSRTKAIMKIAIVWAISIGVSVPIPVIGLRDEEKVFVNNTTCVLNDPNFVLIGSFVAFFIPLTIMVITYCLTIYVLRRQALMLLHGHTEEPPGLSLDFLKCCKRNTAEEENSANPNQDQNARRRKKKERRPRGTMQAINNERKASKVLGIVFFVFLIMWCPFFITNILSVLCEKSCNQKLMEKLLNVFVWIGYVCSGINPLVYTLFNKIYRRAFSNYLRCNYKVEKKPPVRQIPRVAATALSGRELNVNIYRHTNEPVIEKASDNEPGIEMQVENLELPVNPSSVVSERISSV
Procedure, shortened: as §1

[12] = biological target: T12, cloned human or rodent CNS receptors, channels, and transporters (PDSP panel) (Homo sapiens, UniProt P35367); conditions: H1, primary assay; for Mean %: mean inhibition; for Inhibition 1: replicate 1; for Inhibition 2: replicate 2; for Inhibition 3: replicate 3; for Inhibition 4: replicate 4
T12 construct: expressed in transfected cells
Procedure, shortened: as §1

T1 sequence (P35462 whole entry): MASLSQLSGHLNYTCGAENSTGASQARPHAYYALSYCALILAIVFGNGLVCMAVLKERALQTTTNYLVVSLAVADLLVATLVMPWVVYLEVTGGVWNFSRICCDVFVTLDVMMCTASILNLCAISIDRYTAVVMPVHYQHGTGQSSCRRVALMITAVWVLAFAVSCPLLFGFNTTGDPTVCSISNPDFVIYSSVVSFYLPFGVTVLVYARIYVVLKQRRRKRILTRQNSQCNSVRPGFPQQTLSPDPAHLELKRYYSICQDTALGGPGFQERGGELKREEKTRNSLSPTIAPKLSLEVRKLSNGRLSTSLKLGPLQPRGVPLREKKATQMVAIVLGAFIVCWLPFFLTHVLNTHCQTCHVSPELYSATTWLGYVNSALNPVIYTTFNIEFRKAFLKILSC
T12 sequence (P35367 whole entry): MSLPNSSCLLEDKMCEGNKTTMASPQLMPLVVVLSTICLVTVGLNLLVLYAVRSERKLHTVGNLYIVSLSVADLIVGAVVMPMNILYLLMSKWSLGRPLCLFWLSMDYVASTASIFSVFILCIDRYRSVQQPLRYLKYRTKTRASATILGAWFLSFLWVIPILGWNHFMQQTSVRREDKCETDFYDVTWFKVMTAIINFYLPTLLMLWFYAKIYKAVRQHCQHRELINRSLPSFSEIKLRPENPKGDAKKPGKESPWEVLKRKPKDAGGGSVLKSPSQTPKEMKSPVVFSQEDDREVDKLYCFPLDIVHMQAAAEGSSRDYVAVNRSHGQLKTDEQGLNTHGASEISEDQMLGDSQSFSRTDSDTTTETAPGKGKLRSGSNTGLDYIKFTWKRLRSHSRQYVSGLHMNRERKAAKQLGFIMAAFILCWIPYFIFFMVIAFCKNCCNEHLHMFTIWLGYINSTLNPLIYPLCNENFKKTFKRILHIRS
T10 sequence (P14416 whole entry): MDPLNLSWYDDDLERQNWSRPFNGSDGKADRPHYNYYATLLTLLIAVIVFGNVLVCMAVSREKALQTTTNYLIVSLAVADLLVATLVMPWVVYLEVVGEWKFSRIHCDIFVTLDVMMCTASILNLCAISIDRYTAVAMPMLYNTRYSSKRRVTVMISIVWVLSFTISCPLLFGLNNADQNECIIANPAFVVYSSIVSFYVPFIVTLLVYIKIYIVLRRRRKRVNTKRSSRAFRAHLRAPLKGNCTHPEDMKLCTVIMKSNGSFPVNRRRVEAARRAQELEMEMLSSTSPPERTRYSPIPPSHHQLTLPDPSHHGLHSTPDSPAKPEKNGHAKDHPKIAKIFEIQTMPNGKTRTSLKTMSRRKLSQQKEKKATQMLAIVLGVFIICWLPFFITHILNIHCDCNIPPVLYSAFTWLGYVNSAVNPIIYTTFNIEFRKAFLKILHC
T9 sequence (P34969 whole entry): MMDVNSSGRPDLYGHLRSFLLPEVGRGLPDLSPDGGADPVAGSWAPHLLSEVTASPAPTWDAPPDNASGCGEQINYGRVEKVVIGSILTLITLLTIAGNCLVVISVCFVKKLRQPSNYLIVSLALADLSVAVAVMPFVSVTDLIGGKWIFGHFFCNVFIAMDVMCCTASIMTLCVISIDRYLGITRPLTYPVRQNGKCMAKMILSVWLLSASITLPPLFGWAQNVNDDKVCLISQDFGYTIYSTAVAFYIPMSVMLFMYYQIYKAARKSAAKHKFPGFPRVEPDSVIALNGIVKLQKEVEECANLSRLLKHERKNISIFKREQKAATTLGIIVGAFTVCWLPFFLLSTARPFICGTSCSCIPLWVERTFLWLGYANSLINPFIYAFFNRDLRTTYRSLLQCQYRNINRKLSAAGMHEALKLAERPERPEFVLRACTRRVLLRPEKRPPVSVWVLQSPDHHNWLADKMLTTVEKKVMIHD
T6 sequence (P28221 whole entry): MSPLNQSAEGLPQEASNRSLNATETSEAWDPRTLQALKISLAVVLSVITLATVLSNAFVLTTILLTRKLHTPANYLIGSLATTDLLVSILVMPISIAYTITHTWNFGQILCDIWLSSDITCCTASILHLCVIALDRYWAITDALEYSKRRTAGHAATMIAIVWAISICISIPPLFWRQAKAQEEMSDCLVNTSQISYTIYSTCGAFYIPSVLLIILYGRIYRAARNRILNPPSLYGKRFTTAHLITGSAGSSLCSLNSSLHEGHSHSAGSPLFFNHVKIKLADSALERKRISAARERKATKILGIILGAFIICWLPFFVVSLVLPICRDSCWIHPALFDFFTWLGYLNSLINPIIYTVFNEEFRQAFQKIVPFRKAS
T8 sequence (P28566 whole entry): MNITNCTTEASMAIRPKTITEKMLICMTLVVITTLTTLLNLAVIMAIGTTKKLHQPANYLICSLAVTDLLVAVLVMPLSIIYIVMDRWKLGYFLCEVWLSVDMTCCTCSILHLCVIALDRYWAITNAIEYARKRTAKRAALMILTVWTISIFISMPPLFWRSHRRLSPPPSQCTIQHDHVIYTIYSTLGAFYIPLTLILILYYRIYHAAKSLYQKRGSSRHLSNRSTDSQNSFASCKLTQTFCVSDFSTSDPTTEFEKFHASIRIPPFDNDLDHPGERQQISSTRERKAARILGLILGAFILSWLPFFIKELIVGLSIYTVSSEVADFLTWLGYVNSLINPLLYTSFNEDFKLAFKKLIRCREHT
T2 sequence (Q01959 whole entry): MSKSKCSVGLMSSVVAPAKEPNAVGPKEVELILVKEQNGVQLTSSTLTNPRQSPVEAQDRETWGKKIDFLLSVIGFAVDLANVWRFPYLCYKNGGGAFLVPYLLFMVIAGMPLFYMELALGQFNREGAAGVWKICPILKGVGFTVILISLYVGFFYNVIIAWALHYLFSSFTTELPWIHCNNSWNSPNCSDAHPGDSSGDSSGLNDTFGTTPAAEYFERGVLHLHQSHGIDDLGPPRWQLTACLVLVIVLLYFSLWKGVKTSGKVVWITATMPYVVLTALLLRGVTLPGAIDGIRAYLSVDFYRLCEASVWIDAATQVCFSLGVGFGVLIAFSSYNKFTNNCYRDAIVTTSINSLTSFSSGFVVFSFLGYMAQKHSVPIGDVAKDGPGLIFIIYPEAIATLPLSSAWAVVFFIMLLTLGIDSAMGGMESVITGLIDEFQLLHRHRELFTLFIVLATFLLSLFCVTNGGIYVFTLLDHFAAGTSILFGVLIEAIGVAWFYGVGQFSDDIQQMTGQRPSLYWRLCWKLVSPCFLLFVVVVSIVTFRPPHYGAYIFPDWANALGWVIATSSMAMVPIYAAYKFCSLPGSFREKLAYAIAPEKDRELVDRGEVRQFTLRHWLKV
T4 sequence (P31645 whole entry): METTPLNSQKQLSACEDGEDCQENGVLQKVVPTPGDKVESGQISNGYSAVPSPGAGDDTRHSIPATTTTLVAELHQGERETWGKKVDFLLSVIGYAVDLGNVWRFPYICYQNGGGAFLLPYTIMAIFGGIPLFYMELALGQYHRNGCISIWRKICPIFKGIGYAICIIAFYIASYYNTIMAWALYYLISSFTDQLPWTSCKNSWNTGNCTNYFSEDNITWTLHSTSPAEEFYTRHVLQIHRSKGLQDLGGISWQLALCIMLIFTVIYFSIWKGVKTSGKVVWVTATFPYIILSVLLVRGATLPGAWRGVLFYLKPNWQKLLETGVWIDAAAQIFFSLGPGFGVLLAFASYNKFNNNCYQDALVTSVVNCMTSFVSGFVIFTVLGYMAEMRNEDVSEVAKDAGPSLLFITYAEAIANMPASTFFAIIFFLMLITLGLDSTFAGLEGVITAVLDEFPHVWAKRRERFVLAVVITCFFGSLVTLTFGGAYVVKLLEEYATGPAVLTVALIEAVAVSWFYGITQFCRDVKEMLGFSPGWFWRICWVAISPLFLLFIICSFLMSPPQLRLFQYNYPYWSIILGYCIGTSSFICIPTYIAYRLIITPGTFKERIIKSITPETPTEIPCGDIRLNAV
T7 sequence (P28222 whole entry): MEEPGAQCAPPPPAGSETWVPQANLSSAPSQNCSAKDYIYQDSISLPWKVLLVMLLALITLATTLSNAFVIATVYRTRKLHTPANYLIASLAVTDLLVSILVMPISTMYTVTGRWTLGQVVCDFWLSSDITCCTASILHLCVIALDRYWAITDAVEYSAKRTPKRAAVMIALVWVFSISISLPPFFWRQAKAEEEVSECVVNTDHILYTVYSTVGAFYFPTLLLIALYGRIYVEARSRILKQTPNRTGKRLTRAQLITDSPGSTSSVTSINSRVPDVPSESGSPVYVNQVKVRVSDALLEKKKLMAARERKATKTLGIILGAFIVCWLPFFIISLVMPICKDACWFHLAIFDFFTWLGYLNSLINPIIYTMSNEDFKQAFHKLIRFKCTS

CC(=O)N1CCC(NC(=O)NC23CC4CC(CC(C4)C2)C3)CC1 [UNC10302683A, AR9281]
Mean % [1]: -9.76% | Inhibition 1 [1]: -1.76% | Inhibition 2 [1]: -6.19% | Inhibition 3 [1]: -8.7% | Inhibition 4 [1]: -22.39% | Mean % [2]: 71.25% | Inhibition 1 [2]: 78.11% | Inhibition 2 [2]: 65.9% | Inhibition 3 [2]: 74.33% | Inhibition 4 [2]: 66.66% | Mean % [3]: 16.32% | Inhibition 1 [3]: 9.7% | Inhibition 2 [3]: 20.78% | Inhibition 3 [3]: 26.1% | Inhibition 4 [3]: 8.7% | Mean % [4]: -8.86% and -6.55% | Inhibition 1 [4]: -9.63% and -17.8% | Inhibition 2 [4]: -14.12% and -5.23% | Inhibition 3 [4]: -7.44% and -8.27% | Inhibition 4 [4]: -4.24% and 5.12% | Inhibition 1 [5]: 10.97% and 6.98% | Inhibition 2 [5]: -9.87% and 57.06% | Inhibition 3 [5]: -4.95% and 7.94% | Inhibition 4 [5]: -4.51% and 19.02% | Mean % [6]: 6.45% | Inhibition 1 [6]: 17.8% | Inhibition 2 [6]: 3.64% | Inhibition 3 [6]: 4.06% | Inhibition 4 [6]: 0.31% | Mean % [7]: -0.64% | Inhibition 1 [7]: 23.19% | Inhibition 2 [7]: -3.93% | Inhibition 3 [7]: -10.42% | Inhibition 4 [7]: -11.4% | Mean % [8]: -2.2% | Inhibition 1 [8]: 8.11% | Inhibition 2 [8]: -12.87% | Inhibition 3 [8]: -6.96% | Inhibition 4 [8]: 2.94% | Mean % [9]: 20.3% | Inhibition 1 [9]: 4.73% | Inhibition 2 [9]: 29.98% | Inhibition 3 [9]: 12.78% | Inhibition 4 [9]: 33.7% | Mean % [10]: -5.85% | Inhibition 1 [10]: -4.63% | Inhibition 2 [10]: -2.98% | Inhibition 3 [10]: -11.83% | Inhibition 4 [10]: -3.95% | Mean % [11]: -19.88% | Inhibition 1 [11]: -9.33% | Inhibition 2 [11]: -11.78% | Inhibition 3 [11]: -20.61% | Inhibition 4 [11]: -37.79% | Mean % [12]: 76.51% | Inhibition 1 [12]: 98.85% | Inhibition 2 [12]: 86% | Inhibition 3 [12]: 68.77% | Inhibition 4 [12]: 52.43%

MDL 28170 [UNC10302675A]
Mean % [1]: -4.37% | Inhibition 1 [1]: 0.36% | Inhibition 2 [1]: 5.37% | Inhibition 3 [1]: -17.38% | Inhibition 4 [1]: -5.81% | Mean % [2]: 35.54% | Inhibition 1 [2]: 41.81% | Inhibition 2 [2]: 27.44% | Inhibition 3 [2]: 32.41% | Inhibition 4 [2]: 40.51% | Mean % [3]: 5.87% | Inhibition 1 [3]: 22.44% | Inhibition 2 [3]: -15.29% | Inhibition 3 [3]: -0.28% | Inhibition 4 [3]: 16.62% | Mean % [4]: -4.02% and -0.38% | Inhibition 1 [4]: 19.12% and 14.24% | Inhibition 2 [4]: -10.98% and 6.75% | Inhibition 3 [4]: -20.47% and -17.68% | Inhibition 4 [4]: -3.73% and -4.82% | Mean % ([5]; mean inhibition): 14.47% and 16.31% | Inhibition 1 [5]: 31.01% and 31.3% | Inhibition 2 [5]: 3.06% and 12.16% | Inhibition 3 [5]: 7.19% and 13.84% | Inhibition 4 [5]: 16.6% and 7.94% | Mean % [6]: 5% | Inhibition 1 [6]: 13.22% | Inhibition 2 [6]: 2.39% | Inhibition 3 [6]: 4.89% | Inhibition 4 [6]: -0.52% | Mean % [7]: 7.62% | Inhibition 1 [7]: 14.84% | Inhibition 2 [7]: 5.24% | Inhibition 3 [7]: 9.43% | Inhibition 4 [7]: 0.96% | Mean % [8]: -6.22% | Inhibition 1 [8]: -3.13% | Inhibition 2 [8]: -5.37% | Inhibition 3 [8]: -7.3% | Inhibition 4 [8]: -9.09% | Mean % [9]: 12.48% | Inhibition 1 [9]: 4.73% | Inhibition 2 [9]: 10.46% | Inhibition 3 [9]: 19.29% | Inhibition 4 [9]: 15.42% | Mean % [10]: -18.47% | Inhibition 1 [10]: -14.97% | Inhibition 2 [10]: -19.19% | Inhibition 3 [10]: -16% | Inhibition 4 [10]: -23.71% | Mean % [11]: -9.69% | Inhibition 1 [11]: -16.2% | Inhibition 2 [11]: -15.21% | Inhibition 3 [11]: 9.82% | Inhibition 4 [11]: -17.18% | Mean % [12]: 62.36% | Inhibition 1 [12]: 85.46% | Inhibition 2 [12]: 73.14% | Inhibition 3 [12]: 49.84% | Inhibition 4 [12]: 41%
